Results from paper PMC9653339, “Revisiting the anticancer properties of phosphane(9-ribosylpurine-6-thiolato)gold(I) complexes and their 9H-purine precursors” (Journal of Biological Inorganic Chemistry, 2022).

Assay: Stability in cell culture medium by UV/Vis spectroscopy
Format: physicochemical
Settings: 0–30 min and 3 days
Description: In a further corroboration of the complex stability, the similarity of the chalcogens sulfur and selenium was exploited. The selenolato complex 10 was synthesized and examined for its stability under identical conditions. Since ^77Se is a 1/2 spin nucleus with roughly 8% natural abundance, its compounds can be investigated directly. Depending on whether a break in the Se–Au or the Au–PR3 bond would occur, the shift would change by several hundred ppm and serve as unequivocal evidence. […] In addition, we investigated the stability of complexes 1 and 5 as representatives of the series of purines and purine nucleosides, respectively, in cell culture medium by UV/Vis spectroscopy.

## OC[C@H]1O[C@@H](n2cnc3c([S][Au][PH](c4ccccc4)(c4ccccc4)c4ccccc4)ncnc32)[C@H](O)[C@@H]1O [Complex 5, (1,7-Dihydro-6H-purine-9-β-D-ribofuranosyl-6-thiolato) (triphenylphosphane) gold(I)]
  Stability in cell culture medium (UV/Vis): stable under the test conditions
